Test results reported in PubChem BioAssay AID488788 (Broad Institute, 2010).
Records with an inconclusive call do not appear. Calls of active or inactive are those of the source. No rule for the calls is given here.

Each compound was assayed against CAAX prenyl protease 2 (Saccharomyces cerevisiae (strain ATCC 204508 / S288c)) (UniProt Q03530) (assay: yeast Rce1 CAAX endoprotease inhibition – biochemical, plate reader, cherry-pick, dose response (AID 488788)). Details: Rce1p enzyme activity, at 10 µM (top of the series).
Chain of CAAX prenyl protease 2 (Saccharomyces cerevisiae (strain ATCC 204508 / S288c)) (Q03530 whole entry, looked up): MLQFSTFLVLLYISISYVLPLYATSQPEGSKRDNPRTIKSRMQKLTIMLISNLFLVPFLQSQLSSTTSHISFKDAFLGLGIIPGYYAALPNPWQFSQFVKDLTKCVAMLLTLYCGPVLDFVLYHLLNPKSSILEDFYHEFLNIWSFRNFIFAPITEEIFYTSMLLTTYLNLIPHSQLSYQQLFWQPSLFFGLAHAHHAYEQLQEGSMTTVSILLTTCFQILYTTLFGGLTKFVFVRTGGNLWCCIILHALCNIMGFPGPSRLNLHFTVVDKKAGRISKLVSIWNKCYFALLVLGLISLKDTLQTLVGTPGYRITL
In the case of `Nc1ccccc1Oc1ccc2ccccc2c1`, the “activity change, negative = inhibition” value is reported as “inactive”. With `C=CCc1cccc(/C=N/NC(=O)COc2ccc(-n3cnnn3)cc2)c1O` the “activity change, negative = inhibition” value was “inactive”. In the case of `CCCCOc1ccc(Cc2c(COCC)[nH]c(=S)[nH]c2=O)cc1`, the “activity change, negative = inhibition” value is reported as “inactive”. `CCN(C(=O)COC(=O)c1cc(-c2cccs2)nc2ccccc12)C1CCS(=O)(=O)C1` (stereo not given) was tested, and the “activity change, negative = inhibition” value was “inactive”. In the case of `COc1ccccc1NC(=O)CN(c1ccc(C23CC4CC(CC(C4)C2)C3)cc1)S(C)(=O)=O`, the “activity change, negative = inhibition” value is reported as “inactive”. `CCCCNC(=O)C(CC)Sc1nc2sc(C(=O)OC)c(C)c2c(=O)n1N` (stereo not given) was tested, and the “activity change, negative = inhibition” value was “inactive”. For `CCOC(=O)C[C@H]1c2ccccc2S(=O)(=O)N1Cc1cc(OC)c(OC)c(OC)c1`, the “activity change, negative = inhibition” value was “inactive”. With `O=C(COc1ccccc1)Nc1cccc(-c2nc3cc4ccccc4cc3[nH]2)c1` the “activity change, negative = inhibition” value was “inactive”. `CCOCc1cc(C)[nH]c(=O)c1C#N` was tested, and the “activity change, negative = inhibition” value was “inactive”. In the case of `NS(=O)(=O)c1ccc(NC(=O)/C=C/c2cn(-c3ccccc3)nc2-c2cccc(Cl)c2)cc1`, the “activity change, negative = inhibition” value is reported as “inactive”. In the case of `COC(C[C@@H](O)C[C@H](O)[C@H](C)OCc1ccccc1)OC`, the “activity change, negative = inhibition” value is reported as “inactive”. With `CCCCNC(=O)c1cc2c(=O)n3cccc(C)c3nc2n(Cc2ccccc2)c1=N` the “activity change, negative = inhibition” value was “inactive”. `Cc1ccc(C2(COC(=O)C(C)C)CO2)c(OC(=O)C(C)C)c1` (stereo not given) was tested, and the “activity change, negative = inhibition” value was “inactive”. `CCOc1cc(CNC2CCCC2)ccc1OCc1ccccc1Cl` was tested, and the “activity change, negative = inhibition” value was “inactive”. For `NC(=O)[C@@H]1CC2(CC(c3cccc(NC(=O)CC(c4ccccc4)c4ccccc4)c3)=NO2)CN1C(=O)c1ccc(Cl)cc1` (stereo not given in full), the “activity change, negative = inhibition” value was “inactive”. For `Cc1ccc(C(=O)c2c3ccc(C(F)(F)F)cc3[n+]([O-])n2CCCC(N)=O)cc1`, the “activity change, negative = inhibition” value was “inactive”. In the case of `CC(=O)c1c(C)oc2ccc(NS(=O)(=O)c3ccc(C(=O)O)cc3)cc12`, the “activity change, negative = inhibition” value is reported as “inactive”. For `CC1CCc2c(sc(NC(=O)COC(=O)c3ccccc3NCc3ccco3)c2C#N)C1` (stereo not given), the “activity change, negative = inhibition” value was “inactive”. `COc1ccc(C)cc1NC(=O)CN1C(=O)COc2ccc(S(=O)(=O)N3CCOCC3)cc21` was tested, and the “activity change, negative = inhibition” value was “inactive”. In the case of `COc1ccc2c(c1)cc(C(=O)N[C@@H](CCSC)C(=O)N1CCC(C(=O)O)CC1)n2C`, the “activity change, negative = inhibition” value is reported as “inactive”. In the case of `CCC(=O)Nc1cc(-c2nn(CC(=O)N3CCCCC3)c(=O)c3ccccc23)ccc1N1CCOCC1`, the “activity change, negative = inhibition” value is reported as “inactive”. With `Cc1ccc(S(=O)(=O)c2cn(C)c3cc(N4CCOCC4)c(F)cc3c2=O)cc1` the “activity change, negative = inhibition” value was “inactive”. `Cc1nccc2c1[nH]c1ccccc12` was tested, and the “activity change, negative = inhibition” value was “inactive”. In the case of `Cc1cc2cc(C(=O)N3CCc4c([nH]c5ccccc45)C3c3ccccn3)ccc2o1` (stereo not given), the “activity change, negative = inhibition” value is reported as “inactive”. In the case of `Cc1cc(C)n2nc(CC(=O)NNC(=O)c3ccc(N(C)C)cc3)nc2n1`, the “activity change, negative = inhibition” value is reported as “inactive”. `O=C(N/N=C/C1CC=CCC1)c1ccc(O)cc1O` (stereo not given) was tested, and the “activity change, negative = inhibition” value was “inactive”. With `O=C(O)CCCC[C@@H]1SC[C@@H]2NC(=O)N[C@@H]21` the “activity change, negative = inhibition” value was “inactive”. `CCN(CC)CCCNC(=O)CCc1c(C)n(CC)c2cc(-c3ccccc3OC)nn2c1=O` was tested, and the “activity change, negative = inhibition” value was “inactive”. With `O=C(O)c1ccc2cccc(Cl)c2c1O` the “activity change, negative = inhibition” value was “inactive”. With `CC(C)[C@H](NC(=O)OCc1ccccc1)C(=O)OCC(=O)Nc1c(F)cccc1F` the “activity change, negative = inhibition” value was “inactive”. For `CC1=C(C(=O)N2CCOCC2)C(c2ccccc2F)C2=C(CC(C)(C)CC2=O)N1` (stereo not given), the “activity change, negative = inhibition” value was “inactive”. `O=[N+]([O-])c1cc(S(=O)(=O)N2CCCC2)ccc1NN=C1CCCCC1` was tested, and the “activity change, negative = inhibition” value was “inactive”. For `COC(C/C=C/[C@H](O)[C@H](C)OCc1ccccc1)OC`, the “activity change, negative = inhibition” value was “inactive”. With `COc1ccc2c3c([nH]c2c1)C(C)=NCC3` the “activity change, negative = inhibition” value was “inactive”. In the case of `O=C(O)CCC(=O)c1ccc(-c2ccccc2)cc1`, the “activity change, negative = inhibition” value is reported as “inactive”. With `Cc1nc(SC(C(=O)c2ccccc2)c2ccccc2)nc2ccccc12` (stereo not given) the “activity change, negative = inhibition” value was “inactive”. With `CCOc1cc(-c2nc3c(C)cccn3c2NCC2CCCO2)ccc1O` (stereo not given) the “activity change, negative = inhibition” value was “inactive”. With `COc1cc(OC)cc(-c2ncc3ccccn23)c1` the “activity change, negative = inhibition” value was “inactive”. In the case of `Cc1cc(N/N=C/c2ccc(O)c(C)c2O)nc(-c2ccccc2O)n1`, the “activity change, negative = inhibition” value is reported as “inactive”. In the case of `C=CCn1c(O)c(C(CC)=Nc2ccc(N(CC)CC)cc2)c(=O)[nH]c1=O`, the “activity change, negative = inhibition” value is reported as “inactive”. In the case of `COc1ccc(S(=O)(=O)N(CC(=O)N2CCCC2)Cc2ccccc2)cc1`, the “activity change, negative = inhibition” value is reported as “inactive”. In the case of `O=C1OCCN1C(=O)[C@H]1[C@H](c2ccc(F)cc2)C(c2ccc(F)cc2)=NN1c1ccc(Br)cc1`, the “activity change, negative = inhibition” value is reported as “inactive”. For `C=CCNc1oc(/C=C/c2ccccc2)nc1C#N`, the “activity change, negative = inhibition” value was “inactive”. For `Cc1cc(C)n(-c2nc3ccccc3c(=O)n2OCC(=O)N(C)C)n1`, the “activity change, negative = inhibition” value was “inactive”. For `CSc1ccc(C(=O)C2CCCN(C(=O)c3cccnc3SC)C2)cc1` (stereo not given), the “activity change, negative = inhibition” value was “inactive”.
